This note sets out measurements from patent publication US20220144775A1, “HYDRAZIDE COMPOUND AND KINASE INHIBITOR” (NISSAN CHEMICAL CORPORATION, priority 2019, published 2022).

In this assay the target is T1, LATS1 (Homo sapiens, UniProt O95835).
T1 construct: purchased Carna Biosciences
T1 sequence (O95835 1-1130): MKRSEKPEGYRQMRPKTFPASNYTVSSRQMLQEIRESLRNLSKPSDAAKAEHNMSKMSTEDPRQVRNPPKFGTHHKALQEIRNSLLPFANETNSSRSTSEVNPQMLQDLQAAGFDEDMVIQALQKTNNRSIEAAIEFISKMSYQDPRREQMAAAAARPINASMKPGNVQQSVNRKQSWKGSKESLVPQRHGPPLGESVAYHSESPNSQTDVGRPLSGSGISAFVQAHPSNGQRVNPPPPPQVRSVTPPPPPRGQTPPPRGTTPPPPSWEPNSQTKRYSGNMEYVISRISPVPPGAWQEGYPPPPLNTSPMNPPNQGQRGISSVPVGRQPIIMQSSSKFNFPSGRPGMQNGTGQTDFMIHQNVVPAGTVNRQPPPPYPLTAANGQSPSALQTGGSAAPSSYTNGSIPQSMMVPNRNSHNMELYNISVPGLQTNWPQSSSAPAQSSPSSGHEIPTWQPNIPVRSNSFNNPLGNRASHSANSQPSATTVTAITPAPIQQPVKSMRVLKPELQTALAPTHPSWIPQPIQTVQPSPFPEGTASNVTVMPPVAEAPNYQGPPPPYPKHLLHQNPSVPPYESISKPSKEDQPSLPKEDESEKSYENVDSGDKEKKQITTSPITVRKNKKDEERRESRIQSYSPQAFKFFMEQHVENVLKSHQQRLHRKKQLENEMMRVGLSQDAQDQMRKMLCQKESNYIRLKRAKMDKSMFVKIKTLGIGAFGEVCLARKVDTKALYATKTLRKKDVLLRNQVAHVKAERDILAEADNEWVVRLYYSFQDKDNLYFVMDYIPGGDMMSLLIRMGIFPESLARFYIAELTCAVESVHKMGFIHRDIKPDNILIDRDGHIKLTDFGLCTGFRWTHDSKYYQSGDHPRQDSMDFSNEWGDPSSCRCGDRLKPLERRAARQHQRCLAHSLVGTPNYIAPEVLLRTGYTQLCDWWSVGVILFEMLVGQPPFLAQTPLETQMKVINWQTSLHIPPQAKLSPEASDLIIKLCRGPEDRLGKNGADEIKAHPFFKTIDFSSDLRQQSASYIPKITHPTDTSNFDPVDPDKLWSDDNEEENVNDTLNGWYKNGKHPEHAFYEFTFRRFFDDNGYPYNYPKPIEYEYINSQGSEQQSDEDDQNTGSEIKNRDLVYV
In words: Kinase inhibitory activity against LATS1 (ADP quantification). It counts as biochemical. Conditions: ATP 400 μM, read-out: kinase inhibitory rate. The method, then: Evaluation of the inhibitory activity (calculation of kinase inhibitory rate) of the compound of the present invention against LATS1 and LATS2 (manufactured by Carna Biosciences) was performed. The activity was measured using the Kinase Assay method described below. The test concentration of the compound of the present invention was set such that the final concentration was 100 nM or 1000 nM.
As the analysis method of the data, the mean signal of the control well containing reaction components other than the compound of the present invention was set to 0% inhibition, the mean signal without enzyme addition was set to 100% inhibition, and the inhibition rate was calculated from the mean signal of 2 wells of each compound.
2 μL of a compound of the present invention solution at 2.5-fold concentration, 1 μL of substrate at 5-fold concentration (SGKtide: NH2-CKKRNRRLSVA-COOH, manufactured by SignalChem), ATP (manufactured by Sigma-Aldrich), MgCl2 (manufactured by FUJIFILM Wako Pure Chemical Corporation) solution (final concentration 10 μM, 400 μM and 5 mM, respectively), and 2 μL of kinase solution at 2.5-fold concentration (final concentration of LATS1 or LATS2 5 μg/mL), each prepared with assay buffer (20 mM HEPES, 0.01% Triton X-100, 2 mM DTT, 50 μg/mL BSA, pH 7.5), were mixed in the wells of a polypropylene 384-well plate (manufactured by Greiner Bio-One, #784900) and reacted at room temperature for 5 hr. To the solution was added 5 μL detection solution [Fluorospark (registered trade mark) Kinase/ADP Multi-Assay Kit; manufactured by FUJIFILM Wako Pure Chemical Corporation], and the mixture was reacted at room temperature for 30 min. Successively, 5 μL of a reaction quenching liquid [Fluorospark (registered trade mark) Kinase/ADP Multi-Assay Kit; manufactured by FUJIFILM Wako Pure Chemical Corporation] was added to discontinue the reaction. Thereafter, the ADP concentration of the reaction solution was quantified by EnSpire (manufactured by PerkinElmer) to detect the kinase reaction.

`CC/C(=N\NC(=O)C(C)Nc1cccnc1)c1ccc(O)c(C)c1O` (centres unmarked) [A-004, (E)-N′-(1-(2,4-dihydroxy-3-methylphenyl)propylidene)-2-(pyridin-3-ylamino)propanehydrazide]: the inhibition at 0.1 µM (final concentration 100 nM) was no less than 40%. For the setting “final concentration 1000 nM”, the inhibition at 1 µM was no less than 40%.
